Broadly, the IC50 is the midpoint of a concentration-inhibition curve. Lower therefore signals higher potency. The Ki is a measure of affinity in units of concentration, obtained from inhibition or displacement. A lower Ki goes with a stronger hold on the target.

Results on one compound are retold here after PMC10194981, “Chemosensory protein regulates the behavioural response of Frankliniella intonsa and Frankliniella occidentalis to tomato zonate spot virus–Infected pepper (Capsicum annuum)” (PLOS Pathogens, 2023).

For experiment [1], the target named is FintCSP1-Lys26Ala (Frankliniella intonsa, UniProt A0A891LVF4, K26A). Briefly: Fluorescence (1-NPN) binding and competitive binding assay, FintCSP1 mutant. The method, then: (§1) The binding affinity of FintCSP1 and FoccCSP to the fluorescent probe N-phenyl-1-naphthylamine (1-NPN) was tested using a Spectramax M2 fluorescence spectrometer (Molecular Devices, USA) as reported previously. […] The 1-NPN/FintCSP1 or 1-NPN/FoccCSP mixture was excited at 280 nm, and the emission spectra were recorded at 415 nm. The binding constants (Kd) of FintCSP1 or FoccCSP to 1-NPN were calculated by Scatchard analysis using Prism 5 software (GraphPad, La Jolla, CA, USA). Assuming a protein activity of 100% and that the volatile compound binds to the protein in a 1:1 ratio at saturation, the dissociation constants (Ki) of FintCSP1 or FoccCSP for each ligand were calculated according to the IC50 (the concentration when the ligand replaces 50% of the probe) value of the volatile compounds. The Ki values were calculated according to the following equation: Ki = [IC50]/(1 + [1-NPN]/K1-NPN), where [1-NPN] is the free concentration of 1-NPN, and K1-NPN is the Kd of the 1-NPN/FintCSP1 or 1-NPN/FoccCSP.
(§2) To verify the key amino acids of FintCSP1 and FoccCSP that bind to cis-3-hexenal, six amino acid residues of FintCSP1 were mutated (Lys26Ala, Phe27Ala, Thr28Ala, Glu67Ala, Ser84Ala, and the negative control residue Val132Ala) and nine amino acid residues of FoccCSP were mutated (Lys26Ala, Phe27Ala, Thr28Ala, Thr29Ala, Tyr31Ala, Asp64Ala, Glu67Ala, Gln87Ala, and the negative control residue Val132Ala) with the Fast Mutagenesis System Kit (Transgen Biotech, Beijing, China) using the pET-30a/FintCSP1 and pET-30a/FoccCSP plasmid DNA as template, respectively. Specific primers were designed using Primer Premier 5.0 according to the instructions of the Fast Mutagenesis System Kit (S1 Table). After validation by sequencing, each recombinant variant protein was produced and purified as described above, and their binding affinity to cis-3-hexenal was measured as described above.

Experiment [2] concerns the target FintCSP1-Thr28Ala (Frankliniella intonsa, UniProt A0A891LVF4, T28A). The description is as above. The method, then:
as §1, §2

The target of experiment [3] is FintCSP1-Glu67Ala (Frankliniella intonsa, UniProt A0A891LVF4, E67A). Described as above. The method, then: as §1, §2
In experiment [4] the target is FintCSP1-Phe27Ala (Frankliniella intonsa, UniProt A0A891LVF4, F27A). Described as above. As to the method:
as §1, §2

Experiment [5] concerns M. sexta larvae. Also noted: method as in PMID 25261073. Conditions: cited from earlier work.
Experiment [6] has as its system OBP5 from Apolygus lucorum. The arrangement: method as in PMID 23665333. Conditions: cited from earlier work.
The subject of experiment [7] is F. occidentalis antennae. Description: Electroantennogram (EAG) assay. The arrangement: species or system Frankliniella occidentalis. Conditions: dsFoccCSP-injected compared to dsEGFP-injected F. occidentalis. As to the method: The FintCSP1, FintCSP2, FintOBP, FintOR, FoccCSP, and enhanced green fluorescent protein (EGFP) coding sequences were obtained from GenBank under accession numbers MT199111, MT211602, OK067245, MT211603, AEP27186.1, and U55761.1, respectively. Primers were designed using Primer Premier 5.0, and the T7 promoter sequence (5′-[…]-3′) was added to the 5′ end of each primer (S1 Table). DNA fragments containing T7 promoter sequences were amplified by PCR using pEASY-T1/target gene or pUC-EGFP (preserved in the laboratory) plasmid DNA as template. Then, a double-stranded RNA (dsRNA) was produced from each target gene using the HiScribe T7 Quick High Yield RNA Synthesis Kit (New England Biolabs) according to the manufacturer’s instructions. […]
At 24 h after dsRNA injection, the electrophysiological responses of F. intonsa antennae to six volatile components (i.e., m-cymene, cis-3-hexenal, (+)-2-carene, trans-2-hexenal, α-phellandrene, and α-humulene) or F. occidentalis antennae to cis-3-hexenal were recorded using EAG. […] The EAG values to volatile compounds were calculated using the following equation: absolute value of EAG reaction = reaction value of the tested sample—average value of two control measurements.

The subject of experiment [8] is Anagrus nilaparvatae. The arrangement: method as in PMID 31300659. Conditions: 1:20,000 dilution; cited from earlier work.

Sequence of FintCSP1-Phe27Ala (A0A891LVF4 entry or part of it F27A): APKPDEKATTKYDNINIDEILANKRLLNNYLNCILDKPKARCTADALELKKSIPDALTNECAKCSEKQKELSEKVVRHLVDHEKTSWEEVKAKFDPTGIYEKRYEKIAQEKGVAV
Sequence of FintCSP1-Lys26Ala (A0A891LVF4 entry or part of it K26A): as the sequence (A0A891LVF4 entry or part of it F27A) above, with K7A, A8F counted along it
Sequence of FintCSP1-Thr28Ala (A0A891LVF4 entry or part of it T28A): as the sequence (A0A891LVF4 entry or part of it F27A) above, with A8F, T9A counted along it
Sequence of FintCSP1-Glu67Ala (A0A891LVF4 entry or part of it E67A): as the sequence (A0A891LVF4 entry or part of it F27A) above, with A8F, E48A counted along it

Regarding `CC/C=C\CC=O` [cis-3-hexenal], the IC50 in experiment [1] is more than 100 µM; in experiment [2], more than 100 µM; in experiment [3] it was more than 100 µM; in experiment [4], 53.5 ± 3.07 µM. Further, the “affinity for cis-3-hexenal (in words)” value in experiment [1] (FintCSP1-Lys26Ala, competitive fluorescent assay) is on record as “no affinity”; in experiment [2] (FintCSP1-Thr28Ala, competitive fluorescent assay), “no affinity”; in experiment [3] (FintCSP1-Glu67Ala, competitive fluorescent assay), “no affinity”; in experiment [4] (FintCSP1-Phe27Ala compared with wild-type FintCSP1), “weaker affinity”. Also, the Ki in experiment [4] was determined as 41.1 ± 2.36 µM. In addition, the “effect on M. sexta larvae (in words)” value in experiment [5] is “feeding stimulant”. The “binding to OBP5 (in words)” value in experiment [6] is given as “strongly binds”. The “EAG response of FoccCSP-silenced antennae (in words)” value in experiment [7] is given as “significantly lower response”. For the same compound, the “attraction of Anagrus nilaparvatae (in words)” value in experiment [8] is recorded as “attracts Anagrus nilaparvatae”.
